What is called EC50 is the concentration needed to bring the measured effect to its halfway point. A high value points to a need for much substance.

Each structure is given as a SMILES string.

The assay deals with human PD-L1 (Homo sapiens (Human), UniProt Q9NZQ7). In words: T cell activation luciferase reporter cell culture system (T Cell Activation Assay). Type of assay: cell-based. Conditions: luciferase reporter assay; PD-L1 aAPC/CHO-K1 cells with PD-1 effector Jurkat T cells. For orientation: Reporter assays use an easily measured gene product as a stand-in for the process of interest.
human PD-L1, sequence (Q9NZQ7 19-290): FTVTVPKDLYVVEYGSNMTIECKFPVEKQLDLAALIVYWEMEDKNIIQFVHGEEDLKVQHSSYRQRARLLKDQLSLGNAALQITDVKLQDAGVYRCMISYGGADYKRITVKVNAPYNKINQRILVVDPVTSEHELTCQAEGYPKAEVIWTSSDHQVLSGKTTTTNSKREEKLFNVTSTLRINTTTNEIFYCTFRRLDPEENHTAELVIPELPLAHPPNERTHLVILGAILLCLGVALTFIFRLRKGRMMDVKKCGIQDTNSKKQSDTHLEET
As for `COc1nc(-c2cccc(-c3ccnc(-c4cc5c(=O)n(CCNCC(=O)O)c(OC)nn5c4)c3Cl)c2Cl)ccc1CNC[C@@H]1CCC(=O)N1` [Example 460, (S)-(2-(6-(3-Chloro-4-(2-chloro-3-(6-methoxy-5-((((5-oxopyrrolidin-2-yl)methyl)amino)methyl)pyridin-2-yl)phenyl)pyridin-2-yl)-2-methoxy-4-oxopyrrolo[2,1-f][1,2,4]triazin-3(4H)-yl)ethyl)glycine], the response was half-maximal at 96.5 nM (EC50). `COc1nc(-c2cccc(-c3ccnc(-c4ccc(CN5CC6(CNC(=O)C6)C5)c(OC(F)F)c4)c3Cl)c2Cl)ccc1CN1CC2(CNC(=O)C2)C1` [Example 597, 2-((6-(2-Chloro-3-(3-chloro-2-(3-(difluoromethoxy)-4-((7-oxo-2,6-diazaspiro[3.4]octan-2-yl)methyl)phenyl)pyridin-4-yl)phenyl)-2-methoxypyridin-3-yl)methyl)-2,6-diazaspiro[3.4]octan-7-one] returned an EC50 of 16.4 nM. As for `COc1cc(-c2nccc(-c3cccc(-c4ccc5c(OC)c(CNC[C@@H]6CCC(=O)N6)cc(Cl)c5n4)c3Cl)c2Cl)cc(F)c1CNC[C@@H]1CCC(=O)N1` [Example 236, (S)-5-((((8-Chloro-2-(2-chloro-3-(3-chloro-2-(3-fluoro-5-methoxy-4-(((((S)-5-oxopyrrolidin-2-yl)methyl)amino)methyl)phenyl)pyridin-4-yl)phenyl)-5-methoxyquinolin-6-yl)methyl)amino)methyl)pyrrolidin-2-one], the figure is 53.9 nM; as for `COc1cc(-c2nccc(-c3cccc(-c4ccc(CNC[C@@H]5CCC(=O)N5)c(OC)n4)c3Cl)c2Cl)cc(F)c1CNC[C@@H](C)O` [Cmpd 81, (S)-5-((((6-(2-chloro-3-(3-chloro-2-(3-fluoro-4-((((R)-2-hydroxypropyl)amino)methyl)-5-methoxyphenyl)pyridin-4-yl)phenyl)-2-methoxypyridin-3-yl)methyl)amino)methyl)pyrrolidin-2-one], 31.4 nM. As for `COc1nc(-c2cccc(-c3ccnc(-c4cc(OC)c5nc(CN6CC(C(=O)O)C6)nn5c4)c3Cl)c2Cl)ccc1CNC[C@@H]1CCC(=O)N1` [Example 261, (S)-1-((6-(3-Chloro-4-(2-chloro-3-(6-methoxy-5-((((5-oxopyrrolidin-2-yl)methyl)amino)methyl)pyridin-2-yl)phenyl)pyridin-2-yl)-8-methoxy-[1,2,4]triazolo[1,5-a]pyridin-2-yl)methyl)azetidine-3-carboxylic acid], the figure is 126 nM; as for `COc1nc(-c2cccc(-c3ccnc(-c4cc(F)c5c(c4)CCN(CC(C)(C)O)C5)c3Cl)c2Cl)ccc1CNC[C@@H]1CCC(=O)N1` [Cmpd 46, (S)-5-((((6-(2-chloro-3-(3-chloro-2-(8-fluoro-2-(2-hydroxy-2-methylpropyl)-1,2,3,4-tetrahydroisoquinolin-6-yl)pyridin-4-yl)phenyl)-2-methoxypyridin-3-yl)methyl)amino)methyl)pyrrolidin-2-one], 171 nM; as for `COc1cc(-c2nccc(-c3cccc(-c4ccc(CN5CC6(COC6)C5)c(OC)n4)c3Cl)c2Cl)ccc1CN1CC2(COC2)C1` [Example 387, 6-((6-(3-(2-(4-((2-Oxa-6-azaspiro[3.3]heptan-6-yl)methyl)-3-methoxyphenyl)-3-chloropyridin-4-yl)-2-chlorophenyl)-2-methoxypyridin-3-yl)methyl)-2-oxa-6-azaspiro[3.3]heptane], 8.22 nM.

`COCCC(=O)N1CCC(NCc2ccc(-c3cccc(-c4ccnc(-c5ccc(CN6CC7(CNC(=O)C7)C6)c(OC)c5)c4Cl)c3Cl)nc2OC)CC1` [Example 625, 2-(4-(3-Chloro-4-(2-chloro-3-(6-methoxy-5-(((1-(3-methoxypropanoyl)piperidin-4-yl)amino)methyl)pyridin-2-yl)phenyl)pyridin-2-yl)-2-methoxybenzyl)-2,6-diazaspiro[3.4]octan-7-one] registered an EC50 of 20.8 nM.

In the case of `CNCc1ccc(-c2nccc(-c3cccc(-c4ccc(CNC)c(OC)n4)c3C)c2C)cc1OC` [Example 362, 1-(2-Methoxy-4-(4-(3-(6-methoxy-5-((methylamino)methyl)pyridin-2-yl)-2-methylphenyl)-3-methylpyridin-2-yl)phenyl)-N-methylmethanamine], the EC50 came to 261 nM. `COc1cc(-c2nccc(-c3cccc(-c4ccc(CN5CCC(NC(C)=O)CC5)c(OC)n4)c3C)c2C)ccc1CN1CCC(NC(C)=O)CC1` [Example 461, N-(1-((6-(3-(2-(4-((4-Acetamidopiperidin-1-yl)methyl)-3-methoxyphenyl)-3-methylpyridin-4-yl)-2-methylphenyl)-2-methoxypyridin-3-yl)methyl)piperidin-4-yl)acetamide] showed an EC50 not below 10000 nM.

Take `COc1cc(-c2nccc(-c3cccc(-c4ccc(CN5CC6(CNC(=O)C6)C5)c(OC)n4)c3Cl)c2C)ccc1CN1CC2(CNC(=O)C2)C1` [Example 368, 2-((6-(2-Chloro-3-(2-(3-methoxy-4-((7-oxo-2,6-diazaspiro[3.4]octan-2-yl)methyl)phenyl)-3-methylpyridin-4-yl)phenyl)-2-methoxypyridin-3-yl)methyl)-2,6-diazaspiro[3.4]octan-7-one]: the EC50 was found to be 37.4 nM. To `COc1cc(-c2nccc(-c3cccc(NC(=O)c4ccc(CN5CC6(C5)CN(C(C)=O)C6)cn4)c3C)c2Cl)ccc1CN1CC2(C1)CN(C(C)=O)C2` [Example 649, 5-((6-Acetyl-2,6-diazaspiro[3.3]heptan-2-yl)methyl)-N-(3-(2-(4-((6-acetyl-2,6-diazaspiro[3.3]heptan-2-yl)methyl)-3-methoxyphenyl)-3-chloropyridin-4-yl)-2-methylphenyl)picolinamide] belongs not below 10000 nM; to `COc1cc(-c2nccc(-c3cccc(-c4ccc(CN5CC6(CCN(C(C)=O)CC6)C5)c(OC)n4)c3Cl)c2Cl)ccc1CN1CC2(CCN(C(C)=O)CC2)C1` [Example 485, 1-(2-((6-(3-(2-(4-((7-Acetyl-2,7-diazaspiro[3.5]nonan-2-yl)methyl)-3-methoxyphenyl)-3-chloropyridin-4-yl)-2-chlorophenyl)-2-methoxypyridin-3-yl)methyl)-2,7-diazaspiro[3.5]nonan-7-yl)ethan-1-one], 212 nM. With `COc1cc(-c2ncnc(-c3cccc(-c4ccc(CN5CC6(CCC(=O)N6)C5)c(OC)n4)c3Cl)c2OC)ccc1CN1CC2(CCC(=O)N2)C1` [Example 743, 2-((6-(2-Chloro-3-(5-methoxy-6-(3-methoxy-4-((6-oxo-2,5-diazaspiro[3.4]octan-2-yl)methyl)phenyl)pyrimidin-4-yl)phenyl)-2-methoxypyridin-3-yl)methyl)-2,5-diazaspiro[3.4]octan-6-one], the EC50 is not below 10000 nM. In turn, `CNCc1ccc(C(=O)Nc2cccc(-c3ccnc(-c4ccc(CNC[C@@H]5CCC(=O)N5)c(OC)c4)c3Cl)c2Cl)nc1` [Example 751, (S)—N-(2-Chloro-3-(3-chloro-2-(3-methoxy-4-((((5-oxopyrrolidin-2-yl)methyl)amino)methyl)phenyl)pyridin-4-yl)phenyl)-5-((methylamino)methyl)picolinamide] had an EC50 of 5.68 nM. As for `COC(=O)CCN1CCc2cc(-c3nccc(-c4cccc(-c5ccc(CNC[C@H](C)O)c(OC)n5)c4Cl)c3Cl)cc(OC)c2C1` [Example 272, Methyl (S)-3-(6-(3-chloro-4-(2-chloro-3-(5-(((2-hydroxypropyl)amino)methyl)-6-methoxypyridin-2-yl)phenyl)pyridin-2-yl)-8-methoxy-3,4-dihydroisoquinolin-2(1H)-yl)propanoate], the figure is 88.2 nM; as for `CNCc1ccc(-c2nccc(-c3cccc(-c4ccc(CNC)c(OC)n4)c3Cl)c2C)cc1OC` [Example 334, 1-(6-(2-Chloro-3-(2-(3-methoxy-4-((methylamino)methyl)phenyl)-3-methylpyridin-4-yl)phenyl)-2-methoxypyridin-3-yl)-N-methylmethanamine], 38.5 nM. For the compound `COc1nc(-c2cccc(-c3ccnc(-c4cc(OC)c5nc(CN6CC(C)(O)C6)cn5c4)c3Cl)c2Cl)ccc1CN1CC(C)(O)C1` [Example 455, 1-((6-(2-Chloro-3-(3-chloro-2-(2-((3-hydroxy-3-methylazetidin-1-yl)methyl)-8-methoxyimidazo[1,2-a]pyridin-6-yl)pyridin-4-yl)phenyl)-2-methoxypyridin-3-yl)methyl)-3-methylazetidin-3-ol], the EC50 was 174 nM.

The compound `COc1cc(-c2nccc(-c3cccc(-c4ccc(CNC[C@@H]5CCC(=O)N5)c(OC)n4)c3Cl)c2Cl)cc(F)c1CNCC(C)C` [Cmpd 83, (S)-5-((((6-(2-chloro-3-(3-chloro-2-(3-fluoro-4-((isobutylamino)methyl)-5-methoxyphenyl)pyridin-4-yl)phenyl)-2-methoxypyridin-3-yl)methyl)amino)methyl)pyrrolidin-2-one] showed an EC50 of 66.2 nM. As for `COc1cc(-c2nccc(-c3cccc(-c4ccc(CNC5CCN(C(C)=O)CC5)c(OC)n4)c3Cl)c2Cl)ccc1CNCC1(O)CC1` [Example 512, 1-(4-(((6-(2-Chloro-3-(3-chloro-2-(4-((((1-hydroxycyclopropyl)methyl)amino)methyl)-3-methoxyphenyl)pyridin-4-yl)phenyl)-2-methoxypyridin-3-yl)methyl)amino)piperidin-1-yl)ethan-1-one], the figure is 32.8 nM; as for `COc1cc(-c2ncnc(-c3cccc(-c4ccc(CN[C@H]5C[C@H](O)C5)c(OC)n4)c3Cl)c2Cl)ccc1CN1CC2(CNC(=O)C2)C1` [Example 740], 80.4 nM; as for `COc1cc(-c2nccc(-c3cccc(-c4ccc(CNC5CCN(C(C)=O)CC5)c(OC)n4)c3Cl)c2Cl)ccc1CN1CCC(C)(N)CC1` [Example 406, 1-(4-(((6-(3-(2-(4-((4-Amino-4-methylpiperidin-1-yl)methyl)-3-methoxyphenyl)-3-chloropyridin-4-yl)-2-chlorophenyl)-2-methoxypyridin-3-yl)-methyl)-amino)piperidin-1-yl)ethan-1-one], 62.7 nM.

In the case of `COc1cc(-c2nccc(-c3cccc(-c4ccc5c(CNC[C@@H]6CCCO6)cn(C)c5n4)c3Cl)c2Cl)ccc1CNC[C@@H]1CCC(=O)N1` [Cmpd 93, (S)-5-(((4-(3-chloro-4-(2-chloro-3-(1-methyl-3-(((((S)-tetrahydrofuran-2-yl)methyl)amino)methyl)-1H-pyrrolo[2,3-b]pyridin-6-yl)phenyl)pyridin-2-yl)-2-methoxybenzyl)amino)methyl)pyrrolidin-2-one], the response was half-maximal at 44.2 nM (EC50).

The values above are taken from US20240246964A1 (Arbutus Biopharma Corporation, priority 2021, published 2024).
